Source: ChEMBL document CHEMBL1201862, “PubChem BioAssay data set” (2004)
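1) Cells in 96-well plates. 2) Compound, 48 h, 5 concentrations. 3) Linear interpolation between surrounding doses. 4) Unreached endpoint = highest concentration. Here, GI50 denotes the concentration required for 50% inhibition of growth.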 Calls of active or inactive are those of the source. Cut-off read from the data, not from the text of the source: active = GI50 up to about 1.1 µM and inactive = higher.

How the values were obtained:
Test in all cases: DTP human tumour cell line panel, 48 h
KM-20L2 = tested on: KM-20L2
LXFL 529 = tested on: LXFL 529
SNB-78 = tested on: SNB-78
XF498 = tested on: XF498
DMS-114 = tested on: DMS-114
DMS-273 = tested on: DMS-273
HOP-18 = tested on: HOP-18
M19-MEL = tested on: M19-MEL
RXF 631 = tested on: RXF 631

Row | SMILES | GI50 (KM-20L2) | GI50 (LXFL 529) | GI50 (SNB-78) | GI50 (XF498) | GI50 (DMS-114) | GI50 (DMS-273) | GI50 (HOP-18) | GI50 (M19-MEL) | GI50 (RXF 631)
1 | COc1cc2c(cc1OC)C1Cc3ccc(OC)c(OC)c3C[N+]1([O-])CC2 (configuration not stated) | > 100 µM (inactive) | > 100 µM (inactive) | > 100 µM (inactive) | > 100 µM (inactive) | – | – | – | – | –
2 | CC1(C2CCC3(C)OC3C2)CO1 (configuration not stated) | > 100 µM (inactive) | > 100 µM (inactive) | > 100 µM (inactive) | > 100 µM (inactive) | > 100 µM (inactive) | > 100 µM (inactive) | > 100 µM (inactive) | > 100 µM (inactive) | > 100 µM (inactive)
3 | COC(=O)[C@H]1C=C[C@@H](C)n2c(=O)c3cc4ccccc4cc3c(=O)n21 | > 100 µM (inactive) | > 100 µM (inactive) | > 100 µM (inactive) | 98.9 µM (inactive) | > 100 µM (inactive) | > 100 µM (inactive) | – | > 100 µM (inactive) | > 100 µM (inactive)
4 | COc1ccc2ccccc2c1CN1CCOCCOCCN(Cc2c(OC)ccc3ccccc23)CCOCCOCC1 | > 23 µM (inactive) | > 89.9 µM (inactive) | > 68.4 µM (inactive) | > 41.5 µM (inactive) | 9.95 µM (inactive) | 24.2 µM (inactive) | – | > 81.8 µM (inactive) | –
5 | CC(C)N(C(=O)C12C3C4C5(C(=O)O)C(C1C35I)C42C(=O)O)C(C)C (configuration not stated) | > 100 µM (inactive) | > 100 µM (inactive) | > 100 µM (inactive) | – | > 100 µM (inactive) | > 100 µM (inactive) | – | > 100 µM (inactive) | > 100 µM (inactive)
6 | COc1ccc2c(c1)[n+]([O-])c(/C(C)=N/NC(=O)CC#N)c[n+]2[O-] | > 100 µM (inactive) | > 100 µM (inactive) | > 100 µM (inactive) | > 100 µM (inactive) | > 100 µM (inactive) | > 100 µM (inactive) | > 100 µM (inactive) | > 100 µM (inactive) | > 100 µM (inactive)
7 | COC(=O)c1nn(C(=N)c2ccc(Cl)cc2)c2c1CCCCC2 | > 100 µM (inactive) | > 100 µM (inactive) | > 100 µM (inactive) | – | > 100 µM (inactive) | > 100 µM (inactive) | – | > 100 µM (inactive) | –
8 | O=C(/C=C/c1ccc([N+](=O)[O-])cc1)c1ccc(NCc2nc3ccccc3[nH]2)cc1 | 3.98 µM (inactive) | 2.9 µM (inactive) | 5.81 µM (inactive) | 6.17 µM (inactive) | 1.91 µM (inactive) | 3.05 µM (inactive) | 16.4 µM (inactive) | 3.94 µM (inactive) | 3.49 µM (inactive)
9 | CCOP(=S)(OCC)Oc1ccc2c(c1)OC(=O)C1(Cl)C2(C)C2(Cl)C(=O)Oc3cc(OP(=S)(OCC)OCC)ccc3C12C (configuration not stated) | 17.1 µM (inactive) | 8.67 µM (inactive) | 19.4 µM (inactive) | 19.2 µM (inactive) | 14.6 µM (inactive) | 20.3 µM (inactive) | – | 18 µM (inactive) | –
10 | O=C1/C(=C/c2ccccc2)CN(C(=O)CCN2CCCC2)C/C1=C\c1ccccc1 | 1.62 µM (inactive) | 1.72 µM (inactive) | 3.8 µM (inactive) | 5.09 µM (inactive) | 2.07 µM (inactive) | 1.75 µM (inactive) | 3.35 µM (inactive) | 1.84 µM (inactive) | 4.08 µM (inactive)
11 | COC1=NCc2ccccc2-c2ccccc21 | – | > 10 µM (inactive) | > 100 µM (inactive) | > 100 µM (inactive) | > 100 µM (inactive) | > 100 µM (inactive) | 75.9 µM (inactive) | – | –
12 | COC(=O)C1=C(c2cc(OC)c(OC)c(OC)c2)OC(c2ccc(OC)c(OC)c2)C1 (configuration not stated) | 44.9 µM (inactive) | 26.5 µM (inactive) | – | 68.4 µM (inactive) | 28.4 µM (inactive) | 45.4 µM (inactive) | 92.3 µM (inactive) | 43.3 µM (inactive) | –
13 | CCC(=S)N(C)O | 21.7 µM (inactive) | 0.499 µM (active) | 55.6 µM (inactive) | 1.01 µM (active) | 2.22 µM (inactive) | – | – | 9.77 µM (inactive) | –
14 | CN(C)C(=S)/N=c1\ss/c(=N\S(=O)(=O)c2ccccc2)n1N(C)C | > 100 µM (inactive) | > 100 µM (inactive) | > 100 µM (inactive) | – | 12.9 µM (inactive) | 92 µM (inactive) | > 100 µM (inactive) | 55.5 µM (inactive) | > 100 µM (inactive)
15 | Oc1ccc2ccccc2c1/N=N/c1ccsc1 | > 100 µM (inactive) | > 100 µM (inactive) | > 100 µM (inactive) | – | > 100 µM (inactive) | > 100 µM (inactive) | > 100 µM (inactive) | > 100 µM (inactive) | 45.5 µM (inactive)
16 | CN(C)NC(=O)NC12CC3CC(CC(C3)C1)C2 | > 100 µM (inactive) | > 100 µM (inactive) | > 100 µM (inactive) | > 100 µM (inactive) | – | > 100 µM (inactive) | – | > 100 µM (inactive) | –
17 | O=C(n1c2ccccc2c2nnc(S)nc21)C(F)(F)F | – | > 100 µM (inactive) | > 100 µM (inactive) | > 100 µM (inactive) | > 100 µM (inactive) | > 100 µM (inactive) | – | > 100 µM (inactive) | –
18 | CC12C(=CC(=O)CC1SCCS(=O)(=O)O)C(C#N)=C(N)N2c1ccc(Cl)c(Cl)c1 (configuration not stated) | > 100 µM (inactive) | > 100 µM (inactive) | > 100 µM (inactive) | – | > 100 µM (inactive) | > 100 µM (inactive) | – | > 100 µM (inactive) | –
19 | COc1cccc(/C=N/[N-]C(=S)Nc2ccccc2)c1[O-].O.[Zn+2] | 40.3 µM (inactive) | 68.5 µM (inactive) | 40.1 µM (inactive) | 23.2 µM (inactive) | 15.4 µM (inactive) | – | > 100 µM (inactive) | 60 µM (inactive) | –
20 | COc1cccc2c1C(=O)c1c(O)c3c(c(O)c1C2=O)CC(O)(C(O)CO)CC3OC1CC(N2CCOCC2)C(O)C(C)O1 (configuration not stated) | 0.0267 µM (active) | 0.0124 µM (active) | 0.0106 µM (active) | 0.0168 µM (active) | 0.018 µM (active) | < 0.001 µM (active) | < 0.001 µM (active) | 0.0146 µM (active) | < 0.001 µM (active)
21 | Cc1ccc(-n2c3nc(=O)n(C)c(=O)c-3nc3ccccc32)c(C)c1 | 4.92 µM (inactive) | 11.3 µM (inactive) | 21.5 µM (inactive) | 13.1 µM (inactive) | – | 4.34 µM (inactive) | 6.62 µM (inactive) | 1.63 µM (inactive) | 7.05 µM (inactive)
